Results taken from patent publication US20080269193A1, “Tetrahydroindole and Tetrahydroindazole Derivatives” (priority 2007, published 2008).

Experiments:
[1] = tested on: HSP-90 (heat shock protein 90); test: Determination of affinity for HSP-90 (purine affinity column elution); type: binding; design: key: +++: very high; ++: high; +: moderate; conditions: elution from purine affinity column
Method: Affinity of test compounds for HSP-90 was determined as follows: Protein mixtures obtained from a variety of organ tissues (for example: spleen, liver and lung) were reversibly bound to a purine affinity column to capture purine-binding proteins, especially HSP-90. The purine affinity column was washed several times, and then eluted with 20 μM, 100 μM, and 500 μM of test compound. Compounds of Formula I elute HP-90 in a dose-dependent manner vs. a control elution using dimethylsulfoxide. The elution profile of Formula I compounds was determined by 1-dimensional SDS polyacrylamide gel electrophoresis. Gels were stained with a fluorescent stain such as sypro ruby (a highly sensitive fluorescent protein stain that can readily detect less than 1 fmol of total protein, i.e., less than 0.04 ng for a 40 kDa protein) or silver nitrate. The gels were imaged using a standard flat bed gel imager and the amount of protein estimated by densitometry. The percent of HSP-90 protein eluted from the column at each concentration was determined and IC50 values were calculated from these estimates.

PC-3 cell line = test: PC-3 cell proliferation assay; type: cell-based; conditions: for IC50: Homo sapiens, PC-3 cells, read-out: inhibitory activity against PC-3 cell proliferation (IC50 range)
Method: (§1) A panel of cancer cell lines was obtained from the DCTP Tumor Repository, National Cancer Institute (Frederick, Md.) or ATCC (Rockville, Md.). Cell cultures were maintained in Hyclone RPMI 1640 medium (Logan, Utah) supplemented with 10% fetal bovine serum and 20 mM HEPES buffer, final pH 7.2, at 37° C. with a 5% CO2 atmosphere. Cultures were maintained at sub-confluent densities. Human umbilical vein endothelial cells (HUVEC) were purchased from Clonetics, a division of Cambrex (Walkersville, Md.). Cultures were established from cryopreserved stocks using Clonetics EGM-2 medium supplemented with 20 mM HEPES, final pH 7.2, at 37° C. with a 5% CO2 atmosphere.
(§2) For proliferation assays, cells were seeded with the appropriate medium into 96 well plates at 1,000-2,500 cells per well, depending on the cell line, and were incubated overnight. The following day, test compound, DMSO solution (negative control), or Actinomycin D (positive control) was added to the appropriate wells as 10× concentrated stocks prepared in phosphate buffered saline. The cell plates were then incubated for an additional 2-5 days, depending on the cell line, to allow proliferation to occur. To measure cell density, 50 μL of WST-1 solution (Roche Applied Science, Ind.) diluted 1:5 in phosphate buffered saline was added to each well, and the cells incubated for an additional 1-5 hrs., again depending on the cell line. Optical density was determined for each well at […] using a Tecan GeniosPro plate reader (RTP, NC). The percentage of cell growth was determined by comparing the cell growth in the presence of test compounds to the cells treated with DMSO vehicle (control, 100% growth) and cells treated with Actinomycin D (10 μM, 0% growth).
Immediately after the WST-1 determination, the medium was removed from the PC-3, NCI-H460 and HUVEC cell lines, and the plates stored at −80° C. Using these assay plates, relative amounts of DNA in each well were determined using the Cyquant DNA assay kit from […] (Eugene, Oreg.) following the manufacturer's directions. Results for each compound treatment were compared to DMSO vehicle control (100%) and 10 μM Actinomycin D treated cells (0%).

Aqueous solubility = type: physicochemical; conditions: water; mono hydrochloride salt
[2] = Oral bioavailability in rat; conditions: in vivo, 10 mg/kg over 24 hours, read-out: oral bioavailability (F)
[3] = tested on: MES-SA/Dx5 (MDR+) cell line; test: Potency against multi-drug resistant cell line; type: cell-based; conditions: vs non-fluorinated parent analog
Method: as §1
as §2, with “The cell plates were then incubated for an additional 2-5 days, depending on the cell line, to allow proliferation to occur. To measure cell density, 50 μL of WST-1 solution (Roche Applied Science, Ind.) diluted 1:5 in phosphate buffered saline was added to each well, and the cells incubated for an additional 1-5 hrs., again depending on the cell line.” left out

NCl/ADR-RES cell line = test: Potency against adriamycin-resistant breast cancer cell line; type: cell-based, human; conditions: vs non-fluorinated parent analog
Method: as §1
as §2, with “The cell plates were then incubated for an additional 2-5 days, depending on the cell line, to allow proliferation to occur. To measure cell density, 50 μL of WST-1 solution (Roche Applied Science, Ind.) diluted 1:5 in phosphate buffered saline was added to each well, and the cells incubated for an additional 1-5 hrs., again depending on the cell line.” left out

CCc1nn(-c2cc(F)c(C(N)=O)c(NCC(OC)OC)c2)c2c1C(=O)CC(C)(C)C2 [Example 97, 2-(2,2-dimethoxyethylamino)-4-(3-ethyl-6,6-dimethyl-4-oxo-4,5,6,7-tetrahydro-1H-indazol-1-yl)-6-fluorobenzamide]
relative binding affinity to HSP-90 [1]: +++ | IC50 (PC-3 cell line): < 500 nM

C#CCN1CCC(Nc2cc(-n3nc(C(F)F)c4c3CC(C)(C)CC4=O)ccc2C(N)=O)CC1 [Example 106, 4-(3-(difluoromethyl)-6,6-dimethyl-4-oxo-4,5,6,7-tetrahydro-1H-indazol-1-yl)-2-(1-(prop-2-ynyl)piperidin-4-ylamino)benzamide]
inhibition of PC-3 cell line growth, times more (PC-3 cell line; vs compounds lacking a basic nitrogen or amino group at R6): 5-10 times

CC1(C)CC(=O)c2c(C(F)(F)F)nn(-c3ccc(C(N)=O)c(N[C@@H]4CCCC[C@H]4N)c3)c2C1 [Example 119, 2-((1R,2R)-2-aminocyclohexylamino)-4-(6,6-dimethyl-4-oxo-3-(trifluoromethyl)-4,5,6,7-tetrahydro-1H-indazol-1-yl)benzamide]
relative binding affinity to HSP-90 [1]: +++ | IC50 (PC-3 cell line): < 500 nM

CC1(C)CC(=O)c2c(C(F)(F)F)nn(-c3ccc(C(N)=O)c(N[C@H]4CCCC[C@@H]4O)c3)c2C1 [Example 172, 4-(6,6-dimethyl-4-oxo-3-(trifluoromethyl)-4,5,6,7-tetrahydro-1H-indazol-1-yl)-2-((1S,2S)-2-hydroxycyclohexylamino)benzamide]
times more potent in PC-3 cell line (PC-3 cell line; vs cyclohexyl analogs not substituted with an oxygen atom): 20-50 times

CCc1nn(-c2ccc(C(N)=O)c3[nH]c(C)nc23)c2c1C(=O)CC(C)(C)C2 [Example 186, 4-(3-ethyl-6,6-dimethyl-4-oxo-4,5,6,7-tetrahydro-1H-indazol-1-yl)-2-methyl-1H-benzo[d]imidazole-7-carboxamide]
relative binding affinity to HSP-90 [1]: ++ | IC50 (PC-3 cell line): 5000 to 50000 nM

C#CCN1CCC[C@H](Nc2cc(-n3nc(C(F)(F)F)c4c3CC(C)(C)CC4=O)ccc2C(N)=O)C1 [Example 121, (S)-4-(6,6-dimethyl-4-oxo-3-(trifluoromethyl)-4,5,6,7-tetrahydro-1H-indazol-1-yl)-2-(1-(prop-2-ynyl)piperidin-3-ylamino)benzamide]
solubility (Aqueous solubility): > 10000 µg/mL

CC1(C)CC(=O)c2c(C(F)(F)F)nn(-c3ccc(C(N)=O)c(NCCO)c3)c2C1 [Example 150, 4-(6,6-dimethyl-4-oxo-3-(trifluoromethyl)-4,5,6,7-tetrahydro-1H-indazol-1-yl)-2-(2-hydroxyethylamino)benzamide]
times more potent in PC-3 cell line (PC-3 cell line; vs alkyl analogs without oxygen): 10-30 times

Cc1nn(-c2cc(F)c(C(N)=O)c(NC3CCOCC3)c2)c2c1C(=O)CC(C)(C)C2 [Example 50, 2-fluoro-6-(tetrahydro-2H-pyran-4-ylamino)-4-(3,6,6-trimethyl-4-oxo-4,5,6,7-tetrahydro-1H-indazol-1-yl)benzamide]
bioavailability [2]: > 40%

CC(C)(C)CN[C@H]1CC[C@H](Nc2cc(-n3nc(C(F)(F)F)c4c3CC(C)(C)CC4=O)ccc2C(N)=O)CC1 [Example 140, 4-(6,6-dimethyl-4-oxo-3-(trifluoromethyl)-4,5,6,7-tetrahydro-1H-indazol-1-yl)-2-(trans-4-(neopentylamino)cyclohexylamino)benzamide]
relative binding affinity to HSP-90 [1]: +++ | IC50 (PC-3 cell line): < 500 nM

CC1(C)CC(=O)c2c(CC3CC3)nn(-c3cc(F)c(C(N)=O)c(NC4CCOCC4)c3)c2C1 [Example 48, 4-(3-(cyclopropylmethyl)-6,6-dimethyl-4-oxo-4,5,6,7-tetrahydro-1H-indazol-1-yl)-2-fluoro-6-(tetrahydro-2H-pyran-4-ylamino)benzamide]
times more potent against MES-SA/Dx5 (MDR+) cell line [3]: 4-6 times | times more potent against NCl/ADR-RES cell line (NCl/ADR-RES cell line): 3-10 times

Cc1nn(-c2ccc(C(N)=O)c(N[C@H]3CCOC3)c2)c2c1C(=O)CC(C)(C)C2 [Example 181, (S)-2-(tetrahydrofuran-3-ylamino)-4-(3,6,6-trimethyl-4-oxo-4,5,6,7-tetrahydro-1H-indazol-1-yl)benzamide]
times more active in PC-3 cell line (PC-3 cell line; vs non-oxygen containing cyclopentyl analogs): 20-50 times

C[C@H](O)CNc1cc(-n2nc(C(F)(F)F)c3c2CC(C)(C)CC3=O)ccc1C(N)=O [Example 165, (S)-4-(6,6-dimethyl-4-oxo-3-(trifluoromethyl)-4,5,6,7-tetrahydro-1H-indazol-1-yl)-2-(2-hydroxypropylamino)benzamide]
relative binding affinity to HSP-90 [1]: +++ | IC50 (PC-3 cell line): 500 to 5000 nM

CC1(C)CC(=O)c2c(C(F)(F)F)nn(-c3ccc(C(N)=O)c(NC4CCC4)c3)c2C1 [Example 148, 2-(cyclobutylamino)-4-(6,6-dimethyl-4-oxo-3-(trifluoromethyl)-4,5,6,7-tetrahydro-1H-indazol-1-yl)benzamide]
times more active in PC-3 cell line (PC-3 cell line; vs open chain butyl or alkyl analogs containing no oxygen): 20-100 times

CC1(C)CC(=O)c2c(CC3CC3)nn(-c3ccc(C(N)=O)c(NC4CCOCC4)c3)c2C1 [Example 157, 4-(3-(cyclopropylmethyl)-6,6-dimethyl-4-oxo-4,5,6,7-tetrahydro-1H-indazol-1-yl)-2-(tetrahydro-2H-pyran-4-ylamino)benzamide]
relative binding affinity to HSP-90 [1]: +++ | IC50 (PC-3 cell line): < 500 nM

CCc1nn(-c2ccc(C(N)=O)c(N[C@H]3CCC[C@@H]3O)c2)c2c1C(=O)CC(C)(C)C2 [Example 180, 4-(3-ethyl-6,6-dimethyl-4-oxo-4,5,6,7-tetrahydro-1H-indazol-1-yl)-2-((1S,2S)-2-hydroxycyclopentylamino)benzamide]
relative binding affinity to HSP-90 [1]: +++ | IC50 (PC-3 cell line): < 500 nM

CC1(C)CC(=O)c2c(C(F)(F)F)nn(-c3ccc(C(N)=O)c(NCCSc4ncccn4)c3)c2C1 [Example 124, 4-(6,6-dimethyl-4-oxo-3-(trifluoromethyl)-4,5,6,7-tetrahydro-1H-indazol-1-yl)-2-(2-(pyrimidin-2-ylthio)ethylamino)benzamide]
IC50 (PC-3 cell line): 500 to 5000 nM

CCc1nn(-c2ccc(C(N)=O)c(N[C@H]3CC[C@H](O)CC3)c2F)c2c1C(=O)CC(C)(C)C2 [Example 51, 4-(3-ethyl-6,6-dimethyl-4-oxo-4,5,6,7-tetrahydro-1H-indazol-1-yl)-3-fluoro-2-(trans-4-hydroxycyclohexylamino)benzamide]
relative binding affinity to HSP-90 [1]: +++ | IC50 (PC-3 cell line): < 500 nM

CCc1nn(-c2cc(F)c(C(N)=O)c(NC3CC=CC3)c2)c2c1C(=O)CC(C)(C)C2 [Example 89, 2-(cyclopent-3-enylamino)-4-(3-ethyl-6,6-dimethyl-4-oxo-4,5,6,7-tetrahydro-1H-indazol-1-yl)-6-fluorobenzamide]
relative binding affinity to HSP-90 [1]: +++ | IC50 (PC-3 cell line): < 500 nM
